Values of other authors, collected in US20200038341A1, “METHODS AND COMPOSITIONS FOR TREATING JOINT DISEASE” (Script Essentials, LLC, priority 2015, published 2020).

Conditions: male and female participants over 50 years old, before and after the intervention

In the case of `CS(C)(=O)=O` [MSM, Methylsulfonylmethane], the “joint function, symptoms of joint degeneration and activities of daily living” value is given as “improve joint function, relieve symptoms of joint degeneration and improve activities of daily living”.
